Experimental data taken from patent publication US20100267561A1, “HERBICIDAL PYRIDAZINONE DERIVATIVES” (priority 2007, published 2010).

How the values were obtained:
Format in all cases: in vivo
[1] = system: velvetleaf (Abutilon theophrasti); test: Test B pre-/postemergence plant response
In short: (§1)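 Preemergence and postemergence (plants 2-18 cm, 1- to 4-leaf stage) applications used test chemicals in a non-phytotoxic solvent with surfactant. Plants were held in a greenhouse 13 to 15 days, then rated visually against controls on a 0-100 scale (0 no effect, 100 complete control).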

[2] = system: common (oilseed) sunflower (Helianthus annuus); test: Test B pre-/postemergence plant response; conditions: Preemergence
In short: as §1

[3] = system: morningglory (Ipomoea coccinea); test: Test B pre-/postemergence plant response
In short: as §1

[4] = system: surinam grass (Brachiaria decumbens); test: Test B pre-/postemergence plant response
In short: as §1

[5] = system: corn (Zea mays); test: Test B pre-/postemergence plant response; conditions: for Corn plant response rating: 8 g ai/ha
In short: as §1

[6] = system: wheat (Triticum aestivum); test: Test B pre-/postemergence plant response
In short: as §1

[7] = system: wild oat (Avena fatua); test: Test B pre-/postemergence plant response
In short: as §1

[8] = system: large crabgrass (Digitaria sanguinalis); test: Test B pre-/postemergence plant response
In short: as §1

[9] = system: green foxtail (Setaria viridis); test: Test B pre-/postemergence plant response
In short: as §1

[10] = system: downy bromegrass (Bromus tectorum); test: Test B pre-/postemergence plant response; conditions: for Bromegrass, Downy plant response rating: 8 g ai/ha
In short: as §1

[11] = system: rice (Oryza sativa); test: Test B flooded paddy test plant response
In short: (§2)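 Rice, umbrella sedge, ducksalad and barnyardgrass at 2-leaf stage; pots flooded to 3 cm, compounds applied into paddy water, depth held throughout. Greenhouse 13 to 15 days, then visual rating vs untreated controls on 0–100 scale (0 no effect, 100 complete control); dash means no test result.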

[12] = system: barnyardgrass (Echinochloa crus-galli); test: Test B flooded paddy test plant response
In short: as §2

[13] = system: umbrella sedge (Cyperus difformis); test: Test B flooded paddy test plant response
In short: as §2

[14] = system: ducksalad (Heteranthera limosa); test: Test B flooded paddy test plant response
In short: as §2

[15] = 8 g ai/ha, postemergence, 0-100 scale
[16] = Postemergence, 16 g ai/ha, scale 0 to 100
[17] = Postemergence, 31 g ai/ha, scale 0 to 100
[18] = Postemergence, 62 g ai/ha, scale 0 to 100, 0 no effect, 100 complete control
[19] = Preemergence, 16 g ai/ha, scale 0 to 100 (0 no effect, 100 complete control)
[20] = Preemergence, 31 g ai/ha, scale 0 to 100 (0 no effect, 100 complete control)
[21] = Preemergence, 62 g ai/ha, 0 to 100 scale, 0 no effect, 100 complete control
[22] = Preemergence, 8 g ai/ha, scale 0 to 100
[23] = 31 g ai/ha, scale 0 to 100 (0 no effect, 100 complete control)
[24] = Preemergence, 62 g ai/ha, scale 0 to 100
[25] = Preemergence, 31 g ai/ha, 0 to 100 scale, 0 no effect, 100 complete control
[26] = Flood (flooded paddy test), 62 g ai/ha, scale 0 to 100, 0 no effect, 100 complete control
[27] = Flood (flooded paddy test), 125 g ai/ha, scale 0 to 100, 0 no effect, 100 complete control
[28] = Flood (flooded paddy test), 250 g ai/ha, scale 0 to 100, 0 no effect, 100 complete control
[29] = Flood, 31 g ai/ha, scale 0 to 100
[30] = Preemergence, 16 g ai/ha, scale 0 to 100

SMILES: Cc1cc(-c2ccc(Cl)cc2)nn1-c1c(OC(=O)c2ccccc2)cnn(C)c1=O [Compound 48]
- Velvetleaf plant response rating [1, 15]: 0
- Plant response rating, Velvetleaf [1, 16]: 0
- Plant response rating, Velvetleaf [1, 17]: 0
- Plant response rating, Velvetleaf [1, 18]: 0
- Plant response rating, Velvetleaf [1, 19]: 0
- Plant response rating, Velvetleaf [1, 20]: 0
- Plant response rating, Velvetleaf [1, 21]: 0
- Velvetleaf plant response rating [1, 22]: 0
- Plant response rating, Sunflower ([2]; 16 g ai/ha, scale 0 to 100 (0 no effect, 100 complete control)): 0
- Plant response rating, Sunflower [2, 23]: 0
- Plant response rating, Sunflower ([2]; 62 g ai/ha, scale 0 to 100): 0
- Sunflower plant response rating ([2]; 8 g ai/ha, scale 0 to 100): 0
- Morningglory plant response rating [3, 15]: 0
- Plant response rating, Morningglory [3, 16]: 0
- Plant response rating, Morningglory [3, 17]: 0
- Plant response rating, Morningglory [3, 18]: 0
- Plant response rating, Morningglory [3, 19]: 0
- Plant response rating, Morningglory [3, 20]: 0
- Plant response rating, Morningglory [3, 24]: 0
- Morningglory plant response rating [3, 22]: 0
- Surinam Grass plant response rating [4, 15]: 75
- Plant response rating, Surinam Grass [4, 16]: 90
- Plant response rating, Surinam Grass [4, 17]: 100
- Plant response rating, Surinam Grass [4, 18]: 100
- Plant response rating, Surinam Grass [4, 19]: 40
- Plant response rating, Surinam Grass [4, 20]: 65
- Plant response rating, Surinam Grass [4, 21]: 75
- Surinam Grass plant response rating [4, 22]: 0
- Corn plant response rating ([5]; postemergence, 0-100 scale): 90
- Plant response rating, Corn [5, 16]: 95
- Plant response rating, Corn [5, 17]: 100
- Plant response rating, Corn [5, 18]: 100
- Plant response rating, Corn [5, 19]: 55
- Plant response rating, Corn [5, 25]: 70
- Plant response rating, Corn [5, 24]: 75
- Corn plant response rating ([5]; Preemergence, scale 0 to 100): 15
- Wheat plant response rating [6, 15]: 0
- Plant response rating, Wheat [6, 16]: 50
- Plant response rating, Wheat [6, 17]: 95
- Plant response rating, Wheat [6, 18]: 98
- Plant response rating, Wheat [6, 19]: 0
- Plant response rating, Wheat [6, 20]: 5
- Plant response rating, Wheat [6, 21]: 60
- Wheat plant response rating [6, 22]: 0
- Oat, Wild plant response rating [7, 15]: 80
- Plant response rating, Oat, Wild [7, 16]: 95
- Plant response rating, Oat, Wild [7, 17]: 98
- Plant response rating, Oat, Wild [7, 18]: 100
- Plant response rating, Oat, Wild [7, 19]: 5
- Plant response rating, Oat, Wild [7, 20]: 80
- Plant response rating, Oat, Wild [7, 24]: 85
- Oat, Wild plant response rating [7, 22]: 0
- Crabgrass, Large plant response rating [8, 15]: 70
- Plant response rating, Crabgrass, Large [8, 16]: 85
- Plant response rating, Crabgrass, Large [8, 17]: 90
- Plant response rating, Crabgrass, Large [8, 18]: 100
- Plant response rating, Crabgrass, Large [8, 19]: 0
- Plant response rating, Crabgrass, Large [8, 25]: 0
- Plant response rating, Crabgrass, Large [8, 24]: 0
- Crabgrass, Large plant response rating [8, 22]: 0
- Foxtail, Green plant response rating [9, 15]: 70
- Plant response rating, Foxtail, Green [9, 16]: 98
- Plant response rating, Foxtail, Green [9, 17]: 100
- Plant response rating, Foxtail, Green [9, 18]: 100
- Plant response rating, Foxtail, Green [9, 19]: 80
- Plant response rating, Foxtail, Green [9, 25]: 100
- Plant response rating, Foxtail, Green [9, 24]: 100
- Foxtail, Green plant response rating [9, 22]: 30
- Bromegrass, Downy plant response rating ([10]; postemergence, 0-100 scale): 5
- Plant response rating, Bromegrass, Downy [10, 16]: 50
- Plant response rating, Bromegrass, Downy [10, 17]: 60
- Plant response rating, Bromegrass, Downy [10, 18]: 90
- Plant response rating, Bromegrass, Downy [10, 19]: 0
- Plant response rating, Bromegrass, Downy [10, 25]: 70
- Plant response rating, Bromegrass, Downy [10, 24]: 80
- Bromegrass, Downy plant response rating ([10]; Preemergence, scale 0 to 100): 0
- Plant response rating, Rice [11, 26]: 0
- Plant response rating, Rice [11, 27]: 0
- Plant response rating, Rice [11, 28]: 0
- Plant response rating, Rice [11, 29]: 0
- Plant response rating, Barnyardgrass [12, 26]: 0
- Plant response rating, Barnyardgrass [12, 27]: 0
- Plant response rating, Barnyardgrass [12, 28]: 30
- Plant response rating, Barnyardgrass [12, 29]: 0
- Plant response rating, Sedge, Umbrella [13, 26]: 0
- Plant response rating, Sedge, Umbrella [13, 27]: 0
- Plant response rating, Sedge, Umbrella [13, 28]: 50
- Plant response rating, Sedge, Umbrella [13, 29]: 0
- Plant response rating, Ducksalad [14, 26]: 0
- Plant response rating, Ducksalad [14, 27]: 0
- Plant response rating, Ducksalad [14, 28]: 30
- Plant response rating, Ducksalad [14, 29]: 0

SMILES: Cc1cc(-c2ccc(Cl)cc2)nn1-c1c(OS(=O)(=O)c2ccccc2[N+](=O)[O-])cnn(C)c1=O [Compound 51]
- Plant response rating, Velvetleaf [1, 20]: 0
- Plant response rating, Velvetleaf [1, 21]: 0
- Velvetleaf plant response rating [1, 22]: 0
- Velvetleaf plant response rating [1, 30]: 0
- Plant response rating, Sunflower [2, 23]: 0
- Plant response rating, Sunflower ([2]; 62 g ai/ha, scale 0 to 100): 0
- Sunflower plant response rating ([2]; 8 g ai/ha, scale 0 to 100): 0
- Sunflower plant response rating ([2]; 16 g ai/ha, scale 0 to 100): 0
- Plant response rating, Morningglory [3, 20]: 0
- Plant response rating, Morningglory [3, 24]: 0
- Morningglory plant response rating [3, 22]: 0
- Morningglory plant response rating [3, 30]: 0
- Plant response rating, Surinam Grass [4, 20]: 90
- Plant response rating, Surinam Grass [4, 21]: 100
- Surinam Grass plant response rating [4, 22]: 30
- Surinam Grass plant response rating [4, 30]: 75
- Plant response rating, Corn [5, 25]: 60
- Plant response rating, Corn [5, 24]: 80
- Plant response rating, Wheat [6, 20]: 10
- Plant response rating, Wheat [6, 21]: 60
- Wheat plant response rating [6, 22]: 0
- Wheat plant response rating [6, 30]: 0
- Plant response rating, Oat, Wild [7, 20]: 80
- Plant response rating, Oat, Wild [7, 24]: 90
- Oat, Wild plant response rating [7, 22]: 0
- Oat, Wild plant response rating [7, 30]: 10
- Plant response rating, Crabgrass, Large [8, 25]: 75
- Plant response rating, Crabgrass, Large [8, 24]: 90
- Crabgrass, Large plant response rating [8, 22]: 0
- Crabgrass, Large plant response rating [8, 30]: 20
- Plant response rating, Foxtail, Green [9, 25]: 98
- Plant response rating, Foxtail, Green [9, 24]: 100
- Foxtail, Green plant response rating [9, 22]: 50
- Foxtail, Green plant response rating [9, 30]: 90
- Plant response rating, Bromegrass, Downy [10, 19]: 0
- Plant response rating, Bromegrass, Downy [10, 25]: 45
- Plant response rating, Bromegrass, Downy [10, 24]: 85
- Bromegrass, Downy plant response rating ([10]; Preemergence, scale 0 to 100): 0
- Plant response rating, Rice [11, 26]: 0
- Plant response rating, Rice [11, 27]: 0
- Plant response rating, Rice [11, 28]: 0
- Plant response rating, Rice [11, 29]: 0
- Plant response rating, Barnyardgrass [12, 26]: 0
- Plant response rating, Barnyardgrass [12, 27]: 10
- Plant response rating, Barnyardgrass [12, 28]: 30
- Plant response rating, Barnyardgrass [12, 29]: 0
- Plant response rating, Sedge, Umbrella [13, 26]: 40
- Plant response rating, Sedge, Umbrella [13, 27]: 60
- Plant response rating, Sedge, Umbrella [13, 28]: 70
- Plant response rating, Sedge, Umbrella [13, 29]: 0
- Plant response rating, Ducksalad [14, 26]: 0
- Plant response rating, Ducksalad [14, 27]: 0
- Plant response rating, Ducksalad [14, 28]: 0
- Plant response rating, Ducksalad [14, 29]: 0
